Reference: patent US12167995B2, “[((1R,2S,5R)-2-isopropyl-5-methyl-cyclohexanecarbonyl)-amino]-acetic acid isopropyl ester for treatment of chronic cough” (AXALBION SA, priority 2019, dated 2024)
“Also recorded” adds a separate entry of the source.

Key:
[1] = biological target: T1, human TRPM8 (Homo sapiens, UniProt Q7Z2W7); experiment: FLIPR calcium assay on cloned human TRPM8 channels expressed in CHO cells; format: cell-based
T1 construct: host or cells: CHO cells
Experimental: AX-8 potency was assessed using Fluorescence Imaging Plate Reader (FLIPR®) assays (study performed by ChanTest/Charles River). The in vitro effects were evaluated on cloned human TRPM8 channels expressed in CHO cells using a Fluo-8 calcium kit and a Fluorescence Imaging Plate Reader ([…]™) instrument. Changes is fluorescence intensity, reflecting the calcium flux through hTRPM8, were measured and the area under the signals (area under the curve, AUC) calculated and expressed in relative light units. Changes induced by the vehicle (HEPES-buffered physiological saline solution, HB-PS) were subtracted.

[2] = biological target: T2, hTRPV1 (Homo sapiens, UniProt Q8NER1); experiment: FLIPR calcium assay, selectivity against hTRPV1 (expressed in HEK-293); format: cell-based
T2 construct: expressed in transfected cells; host or cells: HEK-293
Experimental: Similarly, selectivity against hTRPA1 (expressed in CHO) and hTRPV1 (expressed in HEK-293) was assessed using FLIPR® calcium assay (at 100 μM, i.e., 10-fold more than the concentration for maximal response; see FIG. 12). […] For the agonist effect assessment, the effect of AX-8 was evaluated in the absence of the positive control agonist. The maximal signal elicited in the presence of the respective agonist (300 μM mustard oil for TRPA1; 3 μM capsaicin for TRPV1) was set to 100% activation and the signal in the presence of the vehicle control (HB-PS) was set to 0% activation. For the antagonist effect assessment, the channels were activated with the respective positive control agonist (100 μM mustard oil for TRPA1; 0.1 μM capsaicin for TRPV1). The effects of AX-8 to inhibit the signal was examined after agonist stimulation and compared to the respective positive control antagonist (3 μM ruthenium red). For each channel, the signal elicited in the presence of the respective positive control agonist was set to 100 (0% inhibition) and the signal in the presence of the respective positive control antagonist was set to 0 (100% inhibition).

[3] = test system: refractory chronic cough (RCC); experiment: Clinical Trial 2: objective cough frequency (VitaloJAK 24-hour recording) in RCC patients; format: in vivo, human; design: Cough frequency, Ln Mean (SE), Treatment, 8 hours (GEE) / Cough frequency, Ln Mean (SE), Treatment, 4 hours (GEE) / Cough frequency, Ln Mean (SE), Treatment, 24 hours (GEE): unit not given here
Experimental: The primary objective of the study was to assess the effectiveness of AX-8 (the study drug) for the treatment of RCC and associated upper airway symptoms after one dose of treatment (an orally disintegrating tablet (ODT) having 5 mg AX-8, administered orally and dissolved on the tongue) in reducing awake cough frequency compared to baseline, for the purpose of planning a future randomized controlled trial. Subjects took a single orally disintegrating tablet (ODT) with 5 mg AX-8 in the morning on the first day of the treatment period (Day 1). This Investigational Medical Product (IMP) was let to dissolve on the tongue. […] Objective cough frequency was measured as 24-hour sound recordings using a custom-built digital recording device (VitaloJAK, Vitalograph, Ltd). VitaloJAK™ is a semi-automated 24-hour ambulatory cough monitoring system (Vitalograph; Buckinghamshire, England) operating in a manner which completely replicates routine practice. The 24-hour recordings are compressed using custom designed compression software, using an algorithm. The VitaloJAK™ is a reliable, robust and efficient tool for the objective measurement of cough frequency. Importantly it reduces 24-hour recordings by up to 98% whilst preserving close to 100% of recorded cough sounds. It is worn like a Holter monitor, with a single sensor affixed to the patient's chest wall. An optional second channel via a conventional microphone (worn, for example, on the patient's shirt) allows quality assurance with human intervention. The device itself is attached on the trousers, skirt, etc. The 24-hour cough frequency (coughs per hour) for a specified visit was calculated as: 24-hour cough frequency=(total number of cough events during the monitoring period (24-hour interval))/24. Awake cough frequency=(total number of cough events during the monitoring period (24-hour interval) while the subject was awake)/(total duration (in hours) during the monitoring period (24-hour interval) that the subject was awake). Percent change in awake cough frequency=[(Change from baseline in awake cough frequency×100)/(Baseline awake cough frequency)]. The proportion of participants with ≥30% of reduction from baseline in awake cough frequency is the number of participants with ≤−30% change in awake cough frequency divided by the total number of participants with available data. For awake and asleep cough frequencies, baseline and treatment data were compared using Wilcoxon signed rank test due to the skewed nature of the data. For 24 hour-, 8 hour-, and 4 hour-cough frequencies, baseline and treatment data were compared using General Estimating Equations (GEE) models. Prior to analysis, these cough count data were natural log (Ln) transformed in order to normalise the distribution of the data. As some individual hourly cough counts were zero, 0.1 was added to all values prior to transformation.

[4] = single 5 mg AX-8 ODT, treatment vs baseline

T2 sequence (Q8NER1 whole entry): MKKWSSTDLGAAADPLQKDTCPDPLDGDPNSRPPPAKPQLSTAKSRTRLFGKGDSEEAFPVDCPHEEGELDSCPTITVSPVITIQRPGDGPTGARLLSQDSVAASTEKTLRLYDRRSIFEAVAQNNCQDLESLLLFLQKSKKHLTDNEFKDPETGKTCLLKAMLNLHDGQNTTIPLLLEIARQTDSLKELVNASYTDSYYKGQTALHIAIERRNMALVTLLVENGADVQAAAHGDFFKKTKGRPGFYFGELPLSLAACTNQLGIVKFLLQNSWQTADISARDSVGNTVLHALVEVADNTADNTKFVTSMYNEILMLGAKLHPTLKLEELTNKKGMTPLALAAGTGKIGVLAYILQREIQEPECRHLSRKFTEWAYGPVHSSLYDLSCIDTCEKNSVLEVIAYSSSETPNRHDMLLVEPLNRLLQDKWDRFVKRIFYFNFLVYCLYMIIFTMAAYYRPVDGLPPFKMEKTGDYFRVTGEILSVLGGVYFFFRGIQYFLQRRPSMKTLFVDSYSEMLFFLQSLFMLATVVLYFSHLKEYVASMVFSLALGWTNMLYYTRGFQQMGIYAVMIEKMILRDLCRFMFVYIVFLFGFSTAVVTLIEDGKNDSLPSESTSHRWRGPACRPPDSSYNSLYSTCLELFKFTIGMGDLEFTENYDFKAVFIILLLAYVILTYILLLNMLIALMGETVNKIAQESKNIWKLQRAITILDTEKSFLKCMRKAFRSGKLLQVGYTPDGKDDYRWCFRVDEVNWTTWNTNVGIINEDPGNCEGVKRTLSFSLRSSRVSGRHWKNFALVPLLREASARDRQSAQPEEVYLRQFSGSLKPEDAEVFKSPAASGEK
T1 sequence (Q7Z2W7 whole entry): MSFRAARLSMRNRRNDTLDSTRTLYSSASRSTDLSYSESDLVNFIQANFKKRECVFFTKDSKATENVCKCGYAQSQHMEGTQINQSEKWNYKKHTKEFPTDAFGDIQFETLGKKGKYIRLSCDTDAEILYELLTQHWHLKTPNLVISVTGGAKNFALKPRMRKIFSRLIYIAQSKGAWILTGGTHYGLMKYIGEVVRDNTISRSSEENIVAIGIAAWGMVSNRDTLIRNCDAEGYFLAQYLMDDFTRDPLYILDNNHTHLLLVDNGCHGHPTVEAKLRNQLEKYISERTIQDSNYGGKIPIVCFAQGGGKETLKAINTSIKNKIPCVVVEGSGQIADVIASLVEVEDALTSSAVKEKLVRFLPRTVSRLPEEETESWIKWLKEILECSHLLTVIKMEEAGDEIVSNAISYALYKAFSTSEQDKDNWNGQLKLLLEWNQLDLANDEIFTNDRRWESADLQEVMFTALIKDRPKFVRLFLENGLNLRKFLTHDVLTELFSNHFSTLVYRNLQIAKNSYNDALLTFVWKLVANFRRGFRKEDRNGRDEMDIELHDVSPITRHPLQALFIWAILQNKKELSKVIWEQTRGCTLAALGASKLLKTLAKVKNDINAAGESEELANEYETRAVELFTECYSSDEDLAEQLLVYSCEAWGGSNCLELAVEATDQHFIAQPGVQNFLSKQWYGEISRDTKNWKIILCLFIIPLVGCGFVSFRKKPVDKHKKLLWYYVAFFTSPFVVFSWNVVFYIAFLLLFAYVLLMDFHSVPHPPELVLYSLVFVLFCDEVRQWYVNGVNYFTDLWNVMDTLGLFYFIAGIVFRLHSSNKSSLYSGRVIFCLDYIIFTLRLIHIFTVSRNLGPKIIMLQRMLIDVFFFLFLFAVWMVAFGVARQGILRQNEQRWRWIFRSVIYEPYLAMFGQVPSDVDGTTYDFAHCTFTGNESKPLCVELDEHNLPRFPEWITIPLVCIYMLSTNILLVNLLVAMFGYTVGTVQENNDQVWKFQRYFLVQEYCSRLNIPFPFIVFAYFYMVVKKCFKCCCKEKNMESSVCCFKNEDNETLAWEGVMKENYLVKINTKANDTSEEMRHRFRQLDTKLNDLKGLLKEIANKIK

CC(C)OC(=O)CNC(=O)[C@@H]1C[C@H](C)CC[C@H]1C(C)C [AX-8, [((1R,2S,5R)-2-isopropyl-5-methyl-cyclohexanecarbonyl)-amino]-acetic acid isopropyl ester]
EC50 ([1]; calcium signal AUC, Fluo-8, n=8, read-out: half-maximal response concentration (EC50), activation of human TRPM8): 390 nM | potency as TRPM8 agonist relative to menthol ([1]; ratio of EC50 values): ~6 times | antagonistic interaction with TRPV1 ([2]; at 100 μM, channel activated with 0.1 μM capsaicin, control antagonist 3 μM ruthenium red): no agonistic or antagonistic interactions | agonistic activity on hTRPV1 ([2]; concentrations ≤100 μM, % of capsaicin maximal response, n=4): no agonistic or antagonistic interactions; also recorded: no agonistic activity on hTRPV1 | subjects with ≥30% reduction in 24-hour cough frequency per hour ([3]; 4/12 subjects): 33.3% | subjects with ≥30% reduction in awake cough frequency per hour ([3]; 4/12 subjects): 33.3% | subjects with ≥30% reduction in 4-hour cough frequency per hour ([3]; 5/12 subjects): 41.7% | subjects with ≥30% reduction in 8-hour cough frequency per hour ([3]; 7/12 subjects): 58.3% | Treatment ratio, 24 hours (GEE) ([3]; 95% CI −0.53 to 0.20, p=0.368): −0.166 | reduction in cough frequency during sleep ([3]; from 7.1 to 3.7, may not be statistically significant): 48% | reduction in cough frequency during waking hours ([3]; from 64.1 to 54.8): 14.5% | Cough frequency, Ln Mean (SE), Treatment, 24 hours (GEE) ([3]; natural log transformed, 0.1 added, baseline 2.87 (0.19)): 2.70 (0.33) | Cough frequency, Ln Mean (SE), Treatment, 8 hours (GEE) ([3]; natural log transformed, 0.1 added, baseline 3.72 (0.22)): 3.26 (0.39) | Cough frequency, Ln Mean (SE), Treatment, 4 hours (GEE) ([3]; natural log transformed, 0.1 added, baseline 3.92 (0.19)): 3.38 (0.39) | Treatment ratio (95% CI), 8 hours (GEE) ([3]; p=0.033): −0.461 (−0.88 to −0.04) | Treatment ratio (95% CI), 4 hours (GEE) ([3]; p=0.047): −0.54 (−1.08 to −0.01) | Cough frequency, Median, Treatment, Asleep ([3]; single 5 mg AX-8 ODT, n=12, baseline 7.1, p=0.272 Wilcoxon): 3.7 (0.6-17.5) coughs/hour | Cough frequency, Median, Treatment, 24 hours ([3]; single 5 mg AX-8 ODT, n=12, baseline 48.1): 44.3 coughs/hour | Cough frequency, Median, Treatment, Awake ([3]; single 5 mg AX-8 ODT, n=12, baseline 64.1, p=0.034 Wilcoxon): 54.8 (16.4-79.5) coughs/hour | Cough frequency, Median, Treatment, 4 hours ([3]; single 5 mg AX-8 ODT, n=12, baseline 71.0): 53.4 coughs/hour | Cough frequency, Median, Treatment, 8 hours ([3]; single 5 mg AX-8 ODT, n=12, baseline 75.5): 45.4 coughs/hour | Cough frequency, Change of median, 4 hours [3, 4]: −24.8% | Cough frequency, Change of median, 8 hours [3, 4]: −39.9% | Cough frequency, Change of median, 24 hours [3, 4]: −7.90% | Cough frequency, Change of median, Asleep [3, 4]: −47.9% | Cough frequency, Change of median, Awake [3, 4]: −14.5% | Percentage Change, 8 hours (GEE) ([3]; treatment vs baseline, p=0.033): −36.9% | Percentage Change, 4 hours (GEE) ([3]; treatment vs baseline, p=0.047): −42.0% | Percentage Change, 24 hours (GEE) ([3]; treatment vs baseline, p=0.368): −15.3%
